Source: patent US20060069132A1, “Azolecarboxamide herbicides” (priority 2004, published 2006)
Like-named read-outs stand apart in the source and are kept apart here.

Tests used:
[1] = test system: lambsquarters; experiment: Test C pre-/postemergence herbicide test; format: in vivo, Chenopodium album
Excerpt: (§1) Seeds of plant species selected from bermudagrass (Cynodon dactylon (L.) Pers.), Surinam grass (Urochloa decumbens (Staph) R. D. Webster, previously named Brachiaria decumbens Stapf), cocklebur (Xanthium strumarium L.), corn (Zea mays L.), large crabgrass (Digitaria sanguinalis (L.) Scop.), woolly cupgrass (Eriochloa villosa (Thunb.) Kunth), giant foxtail (Setaria faberi Herrm.), goosegrass (Eleusine indica (L.) Gaertn.), johnsongrass (Sorghum halepense (L.) Pers.), kochia (Kochia scoparia (L.) Schrad.), lambsquarters (Chenopodium album L.), morningglory (Ipomoea coccinea L.), eastern black nightshade (Solanum ptycanthum Dunal), yellow nutsedge (Cyperus esculentus L.), pigweed (Amaranthus retroflexus L.), common ragweed (Ambrosia elatior L.), soybean (Glycine max (L.) Merr.), common (oilseed) sunflower (Helianthus annuus L.) and velvetleaf (Abutilon theophrasti Medik.) were planted and treated preemergence with test chemicals formulated in a non-phytotoxic solvent mixture which included a surfactant.
(§2) At the same time, plants selected from these crop and weed species and also winter barley (Hordeum vulgare L.), blackgrass (Alopecurus myosuroides Huds.), canarygrass (Phalaris minor Retz.), chickweed (Stellaria media (L.) Vill.), downy bromegrass (Bromus tectorum L.), green foxtail (Setaria viridis (L.) Beauv.), Italian ryegrass (Lolium multiflorum Lam.), wheat (Triticum aestivum L.), wild oat (Avenafatua L.) and windgrass (Apera spica-venti (L.) Beauv.) were treated with postemergence applications of some of the test chemicals formulated in the same manner. Plants ranged in height from 2 to 18 cm (1- to 4-leaf stage) for postemergence treatments. Plant species in the flooded paddy test consisted of rice (Oryza sativa), smallflower umbrella sedge (Cyperus difformis L.), ducksalad (Heteranthera limosa (Sw.) Willd.) and barnyardgrass (Echinochloa crus-galli (L.) Beauv.) grown to the 2-leaf stage for testing. Treated plants and controls were maintained in a greenhouse for 12 to 14 days, after which time all species were compared to controls and visually evaluated. Plant response ratings, summarized in Table C, are based on a scale of 0 to 100 where 0 is no effect and 100 is complete control. A dash (-) response means no test result.

[2] = test system: giant foxtail; experiment: Test C pre-/postemergence herbicide test; format: in vivo, Setaria faberi
Excerpt: as §1, §2

[3] = test system: redroot pigweed; experiment: Test A pre-/postemergence herbicide test; format: in vivo, Amaranthus retroflexus; settings: Amaranthus retroflexus, 240 h; for pest or weed control at 500 g/ha: 500 g ai/ha; for pest or weed control at 2000 g/ha: 2000 g ai/ha
In short: (§3)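 Visual injury scores on a 0–100 scale (100 = complete control) taken about ten days post-treatment in greenhouse against untreated controls; dash means no result. Treatments: preemergence soil spray and postemergence spray to runoff on one- to two-leaf plants 2 to 10 cm tall, surfactant-containing formulation.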

[4] = test system: corn; experiment: Test C pre-/postemergence herbicide test; format: in vivo, Zea mays
Excerpt: as §1, §2

[5] = test system: velvetleaf; experiment: Test C pre-/postemergence herbicide test; format: in vivo, Abutilon theophrasti
Excerpt: as §1, §2

[6] = test system: large crabgrass; experiment: Test A pre-/postemergence herbicide test; format: in vivo, Digitaria sanguinalis; settings: Digitaria sanguinalis, 240 h; for pest or weed control at 500 g/ha: 500 g ai/ha; for pest or weed control at 2000 g/ha: 2000 g ai/ha
In short: as §3

[7] = test system: common ragweed; experiment: Test C pre-/postemergence herbicide test; format: in vivo, Ambrosia elatior; design: key to Plant response rating, Ragweed: 0 = no effect, 100 = complete control
Excerpt: as §1, §2

[8] = test system: barnyardgrass; experiment: Test A pre-/postemergence herbicide test; format: in vivo, Echinochloa crus-galli; settings: Echinochloa crus-galli, 240 h; for pest or weed control at 500 g/ha: 500 g ai/ha; for pest or weed control at 2000 g/ha: 2000 g ai/ha
In short: as §3

[9] = test system: kochia; experiment: Test C pre-/postemergence herbicide test; format: in vivo, Kochia scoparia
Excerpt: as §1, §2

[10] = Postemergence, 500 g ai/ha, scale 0 to 100
[11] = post-emergence, Postemergence, 0 to 100 scale, 0 no effect, 100 complete control, read-out: Plant response rating, Pigweed
[12] = post-emergence, Postemergence, 0 to 100 scale, 0 no effect, 100 complete control, read-out: Plant response rating, Crabgrass, Large
[13] = post-emergence, Postemergence, 0 to 100 scale, 0 no effect, 100 complete control, read-out: Plant response rating, Barnyardgrass
[14] = Postemergence, 250 g ai/ha, scale 0 to 100, 0 no effect, 100 complete control
[15] = postemergence, 125 g ai/ha, scale 0 to 100
[16] = postemergence, 62 g ai/ha, scale 0 to 100
[17] = 62 g ai/ha, preemergence, scale 0 to 100
[18] = 250 g ai/ha, scale 0-100, preemergence
[19] = 500 g ai/ha, scale 0 to 100 (0 no effect, 100 complete control), visual, 12 to 14 days, preemergence

CCn1nc(C(C)(C)C)cc1C(=O)Nc1cccc(C(=O)OCCF)c1 [Compound 82, 2-fluoroethyl 3-[[[3-(1,1-dimethylethyl)-1-ethyl-1H-pyrazol-5-yl]-carbonyl]amino]benzoate]
pest or weed control at 250 g/ha ([1]; Chenopodium album, post-emergence, Postemergence, 250 g ai/ha, scale 0 to 100, 0 no effect, 100 complete control, read-out: Plant response rating, Lambsquarters): 80%
pest or weed control at 125 g/ha ([1]; Chenopodium album, post-emergence, postemergence, 125 g ai/ha, scale 0 to 100, read-out: Plant response rating, Lambsquarters): 50%
pest or weed control at 62 g/ha ([1]; Chenopodium album, post-emergence, postemergence, 62 g ai/ha, scale 0 to 100, read-out: Plant response rating, Lambsquarters): 30%
Lambsquarters plant response rating [1, 10]: 100
Foxtail, Giant plant response rating [2, 10]: 30
pest or weed control at 250 g/ha ([2]; Setaria faberi, post-emergence, 312 h, Postemergence, 250 g ai/ha, scale 0 to 100, 0 no effect, 100 complete control, read-out: Plant response rating, Foxtail, Giant): 10%
pest or weed control at 125 g/ha ([2]; Setaria faberi, post-emergence, 312 h, postemergence, 125 g ai/ha, scale 0 to 100, read-out: Plant response rating, Foxtail, Giant): 0%
pest or weed control at 62 g/ha ([2]; Setaria faberi, post-emergence, 312 h, postemergence, 62 g ai/ha, scale 0 to 100, read-out: Plant response rating, Foxtail, Giant): 0%
pest or weed control at 500 g/ha [3, 11]: 50%
pest or weed control at 2000 g/ha [3, 11]: 50%
pest or weed control at 500 g/ha ([3]; pre-emergence, Preemergence, visual rating, 0 to 100 scale (0 no effect, 100 complete control), read-out: Pigweed plant response rating): 5%
pest or weed control at 2000 g/ha ([3]; pre-emergence, Preemergence, 0 to 100 scale, 0 no effect, 100 complete control, read-out: Pigweed plant response rating): 35%
Corn plant response rating [4, 10]: 45
Corn plant response rating (crop injury, 0 = no effect, 100 = complete kill) at 250 g/ha ([4]; Zea mays, post-emergence, 312 h, Postemergence, 250 g ai/ha, scale 0 to 100, 0 no effect, 100 complete control): 10%
Corn plant response rating (crop injury, 0 = no effect, 100 = complete kill) at 125 g/ha ([4]; Zea mays, post-emergence, 312 h, postemergence, 125 g ai/ha, scale 0 to 100): 10%
Corn plant response rating (crop injury, 0 = no effect, 100 = complete kill) at 62 g/ha ([4]; Zea mays, post-emergence, 312 h, postemergence, 62 g ai/ha, scale 0 to 100): 10%
pest or weed control at 250 g/ha ([5]; Abutilon theophrasti, post-emergence, Postemergence, 250 g ai/ha, scale 0 to 100, 0 no effect, 100 complete control, read-out: Plant response rating, Velvetleaf): 70%
pest or weed control at 125 g/ha ([5]; Abutilon theophrasti, post-emergence, postemergence, 125 g ai/ha, scale 0 to 100, read-out: Plant response rating, Velvetleaf): 10%
pest or weed control at 62 g/ha ([5]; Abutilon theophrasti, post-emergence, postemergence, 62 g ai/ha, scale 0 to 100, read-out: Plant response rating, Velvetleaf): 5%
Velvetleaf plant response rating [5, 10]: 75
pest or weed control at 500 g/ha [6, 12]: 20%
pest or weed control at 2000 g/ha [6, 12]: 30%
pest or weed control at 500 g/ha ([6]; pre-emergence, Preemergence, visual rating, 0 to 100 scale (0 no effect, 100 complete control), read-out: Crabgrass, Large plant response rating): 0%
pest or weed control at 2000 g/ha ([6]; pre-emergence, Preemergence, 0 to 100 scale, 0 no effect, 100 complete control, read-out: Crabgrass, Large plant response rating): 0%
pest or weed control at 250 g/ha ([7]; Ambrosia artemisiifolia, post-emergence, Postemergence, 250 g ai/ha, scale 0 to 100, 0 no effect, 100 complete control, read-out: Plant response rating, Ragweed): 10%
pest or weed control at 125 g/ha ([7]; Ambrosia artemisiifolia, post-emergence, postemergence, 125 g ai/ha, scale 0 to 100, read-out: Plant response rating, Ragweed): 0%
pest or weed control at 62 g/ha ([7]; Ambrosia artemisiifolia, post-emergence, postemergence, 62 g ai/ha, scale 0 to 100, read-out: Plant response rating, Ragweed): 0%
Ragweed plant response rating [7, 10]: 30
pest or weed control at 500 g/ha [8, 13]: 20%
pest or weed control at 2000 g/ha [8, 13]: 20%
pest or weed control at 500 g/ha ([8]; pre-emergence, Preemergence, visual rating, 0 to 100 scale (0 no effect, 100 complete control), read-out: Barnyardgrass plant response rating): 0%
pest or weed control at 2000 g/ha ([8]; pre-emergence, Preemergence, 0 to 100 scale, 0 no effect, 100 complete control, read-out: Barnyardgrass plant response rating): 0%
pest or weed control at 250 g/ha ([9]; Bassia scoparia, post-emergence, Postemergence, 250 g ai/ha, scale 0 to 100, 0 no effect, 100 complete control, read-out: Plant response rating, Kochia): 50%
pest or weed control at 125 g/ha ([9]; Bassia scoparia, post-emergence, postemergence, 125 g ai/ha, scale 0 to 100, read-out: Plant response rating, Kochia): 40%
pest or weed control at 62 g/ha ([9]; Bassia scoparia, post-emergence, postemergence, 62 g ai/ha, scale 0 to 100, read-out: Plant response rating, Kochia): 10%
Kochia plant response rating [9, 10]: 70

CCOC(=O)c1cccc(NC(=O)c2cc(C3(C)CC3)nn2CC)c1 [Compound 295]
Plant response rating, Lambsquarters [1, 14]: 50
Plant response rating, Lambsquarters [1, 15]: 5
Plant response rating, Lambsquarters [1, 16]: 0
Plant response rating, Foxtail, Giant [2, 14]: 40
Plant response rating, Foxtail, Giant [2, 15]: 35
Plant response rating, Foxtail, Giant [2, 16]: 30
Plant response rating, Corn [4, 14]: 15
Plant response rating, Corn [4, 15]: 10
Plant response rating, Corn [4, 16]: 5
Plant response rating, Velvetleaf [5, 14]: 70
Plant response rating, Velvetleaf [5, 15]: 65
Plant response rating, Velvetleaf [5, 16]: 60
Plant response rating, Ragweed [7, 14]: 40
Plant response rating, Ragweed [7, 15]: 30
Plant response rating, Ragweed [7, 16]: 25
Plant response rating, Kochia [9, 14]: 90
Plant response rating, Kochia [9, 15]: 85
Plant response rating, Kochia [9, 16]: 80

CCc1nn(C(C)C)nc1C(=O)Nc1cccc(C(=O)N2CCCCC2)c1 [Compound 385]
Plant response rating, Lambsquarters [1, 17]: 75
Plant response rating (0 = no effect, 100 = complete control), Lambsquarters ([1]; 125 g ai/ha, preemergence): 100
Plant response rating, Lambsquarters [1, 18]: 100
Plant response rating, Lambsquarters [1, 19]: 100
Plant response rating, Foxtail, Giant [2, 17]: 40
Plant response rating (0 = no effect, 100 = complete control), Foxtail, Giant ([2]; 125 g ai/ha, preemergence): 80
Plant response rating, Foxtail, Giant [2, 18]: 95
Plant response rating, Foxtail, Giant [2, 19]: 100
Plant response rating, Corn [4, 17]: 0
Plant response rating, Velvetleaf [5, 17]: 50
Plant response rating (0 = no effect, 100 = complete control), Velvetleaf ([5]; 125 g ai/ha, preemergence): 85
Plant response rating, Velvetleaf [5, 18]: 100
Plant response rating, Velvetleaf [5, 19]: 100
Plant response rating, Ragweed [7, 17]: 0
Plant response rating (0 = no effect, 100 = complete control), Ragweed ([7]; 125 g ai/ha, preemergence): 20
Plant response rating, Ragweed [7, 18]: 90
Plant response rating, Ragweed [7, 19]: 95
Plant response rating, Kochia [9, 17]: 0
Plant response rating (0 = no effect, 100 = complete control), Kochia ([9]; 125 g ai/ha, preemergence): 70
Plant response rating, Kochia [9, 18]: 85
Plant response rating, Kochia [9, 19]: 100
